Source: patent US6313376A, “Maize aquaporins and uses thereof” (Pioneer Hi-Bred International, Inc., priority 1999, dated 2001)

How the values were obtained:
ZmPIP2 = test: Osmotic water permeability assay, water channel activity of ZmPIP2 in the presence of cAMP agonists or phosphatase inhibitor; assay type: cell-based, Zea mays; conditions: cAMP agonists to activate cellular PKA, or protein phosphatase inhibitor
Experimental: (§1) Xenopus laevis oocytes were prepared and injected as previously described (Daniels et al., 1996). The osmotic water permeability assay was conducted as previously described (Weig et al., 1997).
A number of studies indicate that the activity of aquaporins may be regulated by phosphorylation. For instance, -TIP, a seed specific vacuolar protein from bean, is phosphorylated in vivo and in vitro and the phosphorylation regulates its water channel activity in Xenopus oocytes (Maurel et al., 1993). […] Water channel activity of ZmPIP2 was tested in the presence of (1) cAMP agonists (8-bromoadenosine 3', 5'-cyclic monophosphate, forksolin and 3-isobutyl-1-methylxanthine) to increase the cytosolic cAMP concentration and activate cellular PKA and (2) protein phosphatase inhibitor okadeic acid.

ZmPIP3 = target: T1, ZmPIP3 (Zea mays, UniProt Q9XF58); test: Osmotic water permeability assay (Xenopus oocyte swelling), inhibition of water transport through ZmPIP3; assay type: cell-based
T1 construct: plasma membrane swelling assay; insert borders and tag not described
T1 sequence (Q9XF58 1-284): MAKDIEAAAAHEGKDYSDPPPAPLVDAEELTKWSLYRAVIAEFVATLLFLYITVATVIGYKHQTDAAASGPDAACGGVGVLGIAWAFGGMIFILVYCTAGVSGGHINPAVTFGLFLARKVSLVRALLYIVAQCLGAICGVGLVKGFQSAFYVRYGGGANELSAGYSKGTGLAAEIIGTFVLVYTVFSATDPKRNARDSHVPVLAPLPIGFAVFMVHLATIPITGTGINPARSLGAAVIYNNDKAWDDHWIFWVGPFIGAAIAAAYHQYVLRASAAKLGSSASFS
Experimental: as §1
(§2) The biological activity of aquaporins is usually determined with Xenopus oocyte swelling assays (Maurel et al, 1993). MIP cRNA is injected into oocytes and after a 3-day incubation the oocytes are moved to a hypotonic medium. If water channel proteins are present in the plasma membrane, the oocytes swell and burst much faster than the control oocytes. […] The osmotic water permeability coefficient (Pf) of the oocyte membrane increased 8-fold over the control. Mercurial compounds are characteristic inhibitors of many water-channel proteins. Water transport through ZmPIP3 is inhibited 50% by 1 mM mercuric chloride and this inhibition is reversed by the reducing agent -mercaptoethanol.

Xenopus laevis oocytes [1] = test: Osmotic water permeability assay of cRNA-injected oocytes (Pf of the oocyte membrane); assay type: cell-based; conditions: cRNA-injected oocytes moved to hypotonic medium after 3-day incubation; versus control oocytes
Experimental: as §1, §2

Xenopus laevis oocytes [2] = test: Radiolabeled solute uptake assay in ZmPIP2-expressing oocytes; assay type: cell-based; conditions: 1 mM solute, 21° C., 0, 15 and 30 min
Experimental: Two to three days after water or mRNA injection, groups of 5 oocytes were incubated at 21° C. in […] of Barth's solution containing 0.1 to 0.5 MBq/ml of the radiolabeled solutes ([^14 C]glycerol, […]; [^14 C]choline, 2.0 GBq/mmol; [^14 C]ethanol, 0.144 GBq/mmol; [^14 C]urea, 2.0 GBq/mmol or [^14 C]labeled amino acid mixture without methionine, 1.85 MBq/ml). Nonradioactive solutes were added to give a 1 mM final concentration. After 0, 15 and 30 min, the oocytes were washed rapidly three times in ice-cold Barth's solution, and individual oocytes were dissolved in 5% SDS for scintillation counting.
Although many MIP proteins are aquaporin, some of them can transport small neutral solutes, exclusively or in addition to water. For instance, tobacco NtTIPa and NtAQP1 transport glycerol in addition to water (Gerbeau et al., 1999), whilst the bacterial GIpF is a selective glycerol facilitator. Transport essays were performed in ZmPIP2-expressing oocytes with a series of labeled solutes including glycerol, urea, ethanol, choline and amino acids.

CC(C)Cn1c(=O)n(C)c(=O)c2[nH]cnc21 [3-isobutyl-1-methylxanthine]
effect on Pf of ZmPIP2-expressing oocytes (ZmPIP2): None of these treatments affected the Pf

Nc1ncnc2c1nc(Br)n2[C@@H]1O[C@@H]2COP(=O)(O)O[C@H]2[C@H]1O [8-bromoadenosine 3', 5'-cyclic monophosphate]
effect on Pf of ZmPIP2-expressing oocytes (ZmPIP2): None of these treatments affected the Pf

OCCS [-mercaptoethanol]
reversal of mercuric chloride inhibition of ZmPIP3 water transport (ZmPIP3; reducing agent added after 1 mM mercuric chloride inhibition): reversed

C=C[C@@]1(C)CC(=O)[C@]2(O)[C@@]3(C)[C@@H](O)CCC(C)(C)[C@@H]3[C@H](O)[C@H](OC(C)=O)[C@@]2(C)O1 [forksolin]
effect on Pf of ZmPIP2-expressing oocytes (ZmPIP2): None of these treatments affected the Pf

[Cl][Hg][Cl] [mercuric chloride]
inhibition of water transport through ZmPIP3 (ZmPIP3; 1 mM mercuric chloride, ZmPIP3 cRNA-injected Xenopus oocytes): 50%

okadeic acid
effect on Pf of ZmPIP2-expressing oocytes (ZmPIP2): None of these treatments affected the Pf

B1: ZmPIP3: maize aquaporin; polypeptide of SEQ ID NO: 4, expressed from cRNA in Xenopus oocytes (protein)
chain: T1 sequence (Q9XF58 1-284)
increase of osmotic water permeability coefficient (Pf) of the oocyte membrane over the control (Xenopus laevis oocytes [1]): 8 fold

B2: AtRD28: plasma membrane AtRD28 aquaporin (Daniels et al., 1994), positive control in oocytes (protein, UniProt P30302 1-285, looked up)
Aquaporin PIP2-3: MAKDVEGPDGFQTRDYEDPPPTPFFDAEELTKWSLYRAVIAEFVATLLFLYVTVLTVIGYKIQSDTKAGGVDCGGVGILGIAWAFGGMIFILVYCTAGISGGHINPAVTFGLFLARKVSLIRAVLYMVAQCLGAICGVGFVKAFQSSHYVNYGGGANFLADGYNTGTGLAAEIIGTFVLVYTVFSATDPKRNARDSHVPVLAPLPIGFAVFMVHLATIPITGTGINPARSFGAAVIFNKSKPWDDHWIFWVGPFIGATIAAFYHQFVLRASGSKSLGSFRSAANV
increase of osmotic water permeability coefficient (Pf) of the oocyte membrane over the control (Xenopus laevis oocytes [1]): 8 fold

B3: ZmPIP2: maize aquaporin designation; polypeptide of SEQ ID NO: 2, expressed from cRNA in Xenopus oocytes (protein)
chain: MEGKEEDVRLGANKFSERQPIGTAAQGAADDKDYKEPPPAPLFEPGELKSWSFYRAGIAEFVATFLFLYITILTVMGVSKSTSKCATVGIQGIAWSFGGMIFALVYCTAGISGGHINPAVTFGLFLARKLSLTRALFYIIMQCLGAICGAGVVKGFQQGLYMGNGGGANVVAPGYTKGDGLGAEIVGTFILVYTVFSATDAKRNARDSHVPILAPLPIGFAVFLVHLATIPITGTGINPARSLGAAIIYNRDHAWNDHWIFWVGPFIGAALAAIYHQVIIRAIPFKSR
transport of labeled solutes (glycerol, urea, ethanol, choline, amino acids) versus water-injected oocytes (Xenopus laevis oocytes [2]): None of the solutes tested were preferentially transported
